Converted amounts (≈) assume the structure as drawn. “And” between values parts separate entries of the source, which are not always exact repeats. Identical values can stand only once. Like-named read-outs stand apart in the source and are kept apart here.
Columns and labels:
[1] = system: SARS-CoV-2, isolate USA-WA1/2020; test: microbe, parasite or virus in culture; format: cell-based; conditions: for perc_max_measured: maximum measured response of dose series; for perc_min_measured: minimum measured response of dose series
[2] = system: SARS-CoV-2; test: Antiviral effect in iPSC-derived pneumocyte system; format: cell-based; conditions: iPSC pneumocytes SARS-CoV-2 antiviral effect; for perc_max_measured: maximum measured response of dose series; for perc_min_measured: minimum measured response of dose series
[3] = Hepatic microsomal stability, HLM; format: in vitro ADME, human; conditions: In vitro human liver microsomal stability; for perc_remaining_no_cofactor: no cofactor
[4] = Hepatic microsomal stability, MLM; format: in vitro ADME
[5] = system: iPSC pneumocytes; test: iPSC pneumocytes cytotoxicity; format: cell-based; conditions: for perc_max_measured: highest measured response of the dose series; for perc_min_measured: lowest measured response of the dose series
Source text: (§1) Supplement media-1.zip/Cytotoxicity.csv, table | column: cc10; cc50; perc_min_measured; perc_max_measured

[6] = system: HeLa-ACE2 cells; conditions: protocol HeLa-ACE2 cytotoxicity; for perc_max_measured: highest measured response of the dose series; for perc_min_measured: lowest measured response of the dose series
[7] = system: MERS-CoV; format: cell-based; conditions: Vero 76 MERS-CoV antiviral effect
[8] = LogD; conditions: pH 7.4
[9] = system: Vero 76
[10] = in vitro; parameters: Cytotoxicity in iPSC-derived pneumocytes, CC50; conditions: human, ipsc-derived pneumocytes; ASAP-0008327-001=ASAP-0011153-001; read-out: 50.0
[11] = in vitro; conditions: human, hela-ace2 cells, 50.0
[12] = In vitro kinetic solubility
[13] = Permeability Papp (AB) MDR1/MDCKII; conditions: In vitro MDR1-MDCKII permeability, mean; for perc_recovery_a_to_b_mean: recovery A to B
[14] = molecular target: SARS-CoV-2 nsp3-mac1 (Severe acute respiratory syndrome coronavirus 2, UniProt P0DTD1); test: biochemical; conditions: for IC50: IC50, nsp3-mac1 activity, Figures 1-3 and text
[15] = iPSC pneumocytes cytotoxicity; format: cell-based; conditions: protocol iPSC pneumocytes cytotoxicity
Source text: as §1

[16] = in vitro; conditions: human
[17] = system: MDR1; test: Permeability Papp (AB) MDR1/MDCKII; conditions: dog, MDCK-MDR1, papp_a_to_b_mean, In vitro MDR1-MDCKII permeability, A to B, mean
[18] = HeLa-ACE2 SARS-CoV-2 antiviral effect without P-gp inhibitor
[19] = In vitro mouse liver microsomal stability
[20] = Severe acute respiratory syndrome coronavirus 2
[21] = protocol iPSC pneumocytes cytotoxicity
[22] = Severe acute respiratory syndrome coronavirus 2, HeLa-ACE2

Structure (SMILES)	perc_max_measured [1, 18]	perc_min_measured [1, 18]	perc_max_measured [2] [%]	perc_min_measured [2] [%]	perc_remaining [3] [%]	t_half [3] [min]	perc_remaining_no_cofactor [3] [%]	perc_remaining [4, 19] [%]	t_half [4, 19] [min]	cc10 [6] [µM]	perc_max_measured [6]	perc_min_measured [6]	perc_recovery_a_to_b_mean [13] [%]	IC50 [14] [µM]	EC90 [2, 20] [µM]	perc_max_measured [5, 21] [%]	perc_min_measured [5, 21] [%]	CC50 [16] [µM]	further results
CNC(=O)c1c[nH]c2ncnc(N[C@H](c3ccc4c(c3)S(=O)(=O)CCC4)C(C)C)c12 (single isomer, unassigned) [ASAP-0011153]	109.331%	66.391%	88.736	31.934	1.0	6.5	94.0	0.0	2.2	> 20.0	96.782%	85.977%	92.7	–	–	–	–	–	EC50 ([1]; HeLa-ACE2 SARS-CoV-2 antiviral effect without P-gp inhibitor, read-out: ec50): > 20 µM; EC90 ([1]; HeLa-ACE2 SARS-CoV-2 antiviral effect without P-gp inhibitor, read-out: ec90): > 20 µM; EC50 [2]: 6.74 µM; EC90 [2]: > 50 µM; clint [3]: 258.0 µL/min/mg; clint [4, 19]: 770.0 µL/min/mg; perc_remaining_no_cofactor ([4]; In vitro mouse liver microsomal stability, no cofactor): 99.0%; CC50 [5]: > 50 µM; cc10 [5]: > 50.0 µM; perc_max_measured [5]: 111.957%; perc_min_measured [5]: 100.111%; CC50 [6]: > 20 µM; EC50 [7]: > 32 µM; logd ([8]; In vitro LogD): 2.7; CC50 [9]: > 32 µM; CC50 [10]: > 50 µM; CC50 at 24 h [11]: > 20 µM; solubility_mean ([12]; In vitro kinetic solubility, ph 7.4): 336 µM (≈ 144 µg/mL); papp_a_to_b_mean ([13]; A to B): 1.61 ×10⁻⁶ cm/s
CC(C)C(Nc1ncnc2[nH]ccc12)c1ccc2c(c1)NC(=O)CO2 (stereo not shown) [ASAP-0008302]	123.573%	69.199%	145.289	92.172	–	–	–	–	–	> 50.0	107.359%	95.445%	–	0.71	> 50	98.455	82.288	> 50	EC50 ([1]; Severe acute respiratory syndrome coronavirus 2, HeLa-ACE2 SARS-CoV-2 antiviral effect without P-gp inhibitor, read-out: ec50): > 50 µM; EC90 ([1]; Severe acute respiratory syndrome coronavirus 2, HeLa-ACE2 SARS-CoV-2 antiviral effect without P-gp inhibitor, read-out: ec90): > 50 µM; EC50 ([2]; Severe acute respiratory syndrome coronavirus 2, iPSC): > 50 µM; CC50 [15]: > 50 µM; cc10 [5, 21]: > 50.0 µM
CCNC(=O)c1cc2c(NC(c3ccc4c(c3)OCCO4)C(C)C)ncnc2[nH]1 (stereo not shown) [ASAP-0008444]	122.873% and 94.861%	70.184% and 54.623%	136.848	15.577	21.0	19.7	103.0	24.0	19.0	–	101.322% and 84.588%	64.265% and 70.325%	85.8	0.24	> 50	91.985	70.899	> 20	increase in potency relative to the starting point ([14]; relative to ASAP-000450): 10 x; EC50 [1, 22]: > 20 µM; EC90 [1, 22]: > 20 µM; EC50 [2, 20]: 41.1 µM; microsomal CLint ([3]; liver microsomes): 85 µL/min/mg; perc_remaining_no_cofactor ([4]; In vitro mouse liver microsomal stability; no cofactor): 109.0%; microsomal CLint ([4]; liver microsomes; In vitro mouse liver microsomal stability): 88 µL/min/mg; logd [8]: 3; solubility ([12]; pH 7.4): 72 µM (≈ 28.5 µg/mL); Papp A→B [17]: 2.41 ×10⁻⁶ cm/s

— article doi:10.1101/2024.08.19.608619, “Discovery of potent SARS-CoV-2 nsp3 macrodomain inhibitors uncovers lack of translation to cellular antiviral response” (bioRxiv, 2024)
